Test results as given in article PMC8780828 (Viruses, 2021).
In brackets after ≈: the same amount, converted by molar mass. Read-outs that look alike come from different tables or passages of the source.

What was measured:
[1] = test system: pseudovirus NL4-3ΔEnv-NanoLuc/SARS-CoV-2; experiment: organism not typed; assay type: cell-based; conditions: HT-1080; n=3
[2] = test system: pseudovirus NL4-3ΔEnv-NanoLuc/SARS-CoV-2; experiment: organism not typed; assay type: cell-based; conditions: A549-ACE2; n=3
[3] = test system: pseudovirus NL4-3ΔEnv-NanoLuc/MERS-CoV; experiment: microbe, parasite or virus in culture; assay type: cell-based; conditions: Middle East respiratory syndrome-related coronavirus, Huh-7; n=3; read-out: IC50
[4] = test system: pseudovirus NL4-3ΔEnv-NanoLuc/MERS-CoV; experiment: microbe, parasite or virus in culture; assay type: cell-based; conditions: Middle East respiratory syndrome-related coronavirus, MRC5; n=3; read-out: IC50
[5] = test system: control pseudovirus NL4-3.Luc.R-E-/A-MLV; experiment: Control pseudovirus A-MLV assay in 293T/ACE2 cells; assay type: cell-based, amphotropic murine leukemia virus (A-MLV); conditions: NL43, 293T/ACE2
[6] = test system: NL4-3ΔEnv-NanoLuc/SARS-CoV-2; experiment: organism not typed; assay type: cell-based
[7] = biological target: SARS-CoV-2 spike S1 subunit protein (Severe acute respiratory syndrome coronavirus 2, UniProt P0DTC2); assay type: binding
[8] = test system: pseudovirus NL4-3ΔEnv-NanoLuc/SARS-CoV-2; experiment: SARS-CoV-2 pseudovirus assay with pre-treated 293T/ACE2 cells; assay type: cell-based; conditions: 293T/ACE2 cells pre-treated with compound 30 min before infection
β-lactamase = assay type: biochemical
Trypsin = assay type: biochemical
[9] = biological target: malate dehydrogenase (MDH); assay type: biochemical
pseudovirus SARS-CoV-2 = experiment: organism not typed; assay type: cell-based
CYP3A [10] = biological target: T1, CYP3A (Homo sapiens, UniProt P08684); conditions: n=1
T1 sequence (P08684 2-503): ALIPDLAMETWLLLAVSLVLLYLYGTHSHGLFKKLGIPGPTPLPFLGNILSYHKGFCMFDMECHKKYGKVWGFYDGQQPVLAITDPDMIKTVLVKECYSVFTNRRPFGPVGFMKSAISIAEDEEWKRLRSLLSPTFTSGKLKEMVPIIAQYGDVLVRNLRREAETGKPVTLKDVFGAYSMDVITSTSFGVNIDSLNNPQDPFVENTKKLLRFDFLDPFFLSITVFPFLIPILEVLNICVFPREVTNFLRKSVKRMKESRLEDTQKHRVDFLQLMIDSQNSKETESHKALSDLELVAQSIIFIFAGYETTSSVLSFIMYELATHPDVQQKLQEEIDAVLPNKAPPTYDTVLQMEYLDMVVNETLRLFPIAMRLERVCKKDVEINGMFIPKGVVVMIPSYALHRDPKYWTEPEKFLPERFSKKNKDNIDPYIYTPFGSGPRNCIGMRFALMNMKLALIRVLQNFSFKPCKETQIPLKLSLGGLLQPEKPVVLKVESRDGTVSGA

[11] = rat, in vivo
P-gp = experiment: in vitro; conditions: human
in vitro = conditions: both, human, microsomes, pH 7.4
CYP1A2 [12] = biological target: T2, CYP1A2 (Homo sapiens, UniProt P05177); experiment: in vitro; conditions: microsomes, pH 7.4
T2 sequence (P05177 whole entry): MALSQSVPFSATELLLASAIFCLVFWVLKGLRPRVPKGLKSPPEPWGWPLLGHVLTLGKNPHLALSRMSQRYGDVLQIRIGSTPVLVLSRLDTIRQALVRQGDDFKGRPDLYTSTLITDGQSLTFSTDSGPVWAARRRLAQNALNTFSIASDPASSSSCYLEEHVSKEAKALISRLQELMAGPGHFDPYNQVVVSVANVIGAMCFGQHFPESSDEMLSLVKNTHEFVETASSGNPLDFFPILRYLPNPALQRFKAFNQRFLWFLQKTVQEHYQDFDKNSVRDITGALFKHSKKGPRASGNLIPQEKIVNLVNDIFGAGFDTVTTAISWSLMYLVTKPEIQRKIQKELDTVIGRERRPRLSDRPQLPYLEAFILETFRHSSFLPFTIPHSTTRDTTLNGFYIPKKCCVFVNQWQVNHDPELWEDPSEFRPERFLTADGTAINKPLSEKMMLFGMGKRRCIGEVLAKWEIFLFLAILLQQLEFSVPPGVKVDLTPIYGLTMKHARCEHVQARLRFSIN

CYP2C9 [13] = biological target: T3, CYP2C9 (Homo sapiens, UniProt P11712); experiment: in vitro; conditions: microsomes, pH 7.4
T3 sequence (P11712 whole entry): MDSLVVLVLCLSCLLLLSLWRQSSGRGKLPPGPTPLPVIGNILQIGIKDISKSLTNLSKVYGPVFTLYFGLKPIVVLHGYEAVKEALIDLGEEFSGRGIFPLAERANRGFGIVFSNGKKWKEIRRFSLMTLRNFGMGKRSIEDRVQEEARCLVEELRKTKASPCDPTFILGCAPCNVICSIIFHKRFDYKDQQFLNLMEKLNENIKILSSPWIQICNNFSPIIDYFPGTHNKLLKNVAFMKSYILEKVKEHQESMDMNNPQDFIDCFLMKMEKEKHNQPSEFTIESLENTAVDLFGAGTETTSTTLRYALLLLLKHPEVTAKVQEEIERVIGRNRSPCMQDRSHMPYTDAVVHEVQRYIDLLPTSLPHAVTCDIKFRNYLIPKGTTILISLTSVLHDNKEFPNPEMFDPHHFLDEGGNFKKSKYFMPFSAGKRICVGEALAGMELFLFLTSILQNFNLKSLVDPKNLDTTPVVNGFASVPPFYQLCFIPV

CYP2C19 [14] = biological target: T4, CYP2C19 (Homo sapiens, UniProt P33261); experiment: in vitro; conditions: microsomes, pH 7.4
T4 sequence (P33261 whole entry): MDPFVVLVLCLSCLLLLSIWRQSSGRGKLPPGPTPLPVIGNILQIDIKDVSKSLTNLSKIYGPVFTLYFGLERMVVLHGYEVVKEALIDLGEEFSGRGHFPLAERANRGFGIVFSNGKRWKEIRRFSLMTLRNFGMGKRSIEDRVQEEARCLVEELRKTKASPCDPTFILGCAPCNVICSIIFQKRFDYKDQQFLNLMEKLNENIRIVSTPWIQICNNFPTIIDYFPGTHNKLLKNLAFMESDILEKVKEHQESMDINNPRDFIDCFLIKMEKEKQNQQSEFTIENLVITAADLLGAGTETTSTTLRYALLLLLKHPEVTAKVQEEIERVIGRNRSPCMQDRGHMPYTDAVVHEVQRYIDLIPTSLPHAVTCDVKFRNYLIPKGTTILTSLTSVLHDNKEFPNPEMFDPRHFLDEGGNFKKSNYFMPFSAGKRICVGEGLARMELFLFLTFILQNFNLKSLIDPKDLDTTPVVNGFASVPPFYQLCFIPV

CYP2D6 = CYP2D6 (Homo sapiens, UniProt P10635); experiment: in vitro; conditions: microsomes, pH 7.4
Chain of CYP2D6 (P10635 whole entry): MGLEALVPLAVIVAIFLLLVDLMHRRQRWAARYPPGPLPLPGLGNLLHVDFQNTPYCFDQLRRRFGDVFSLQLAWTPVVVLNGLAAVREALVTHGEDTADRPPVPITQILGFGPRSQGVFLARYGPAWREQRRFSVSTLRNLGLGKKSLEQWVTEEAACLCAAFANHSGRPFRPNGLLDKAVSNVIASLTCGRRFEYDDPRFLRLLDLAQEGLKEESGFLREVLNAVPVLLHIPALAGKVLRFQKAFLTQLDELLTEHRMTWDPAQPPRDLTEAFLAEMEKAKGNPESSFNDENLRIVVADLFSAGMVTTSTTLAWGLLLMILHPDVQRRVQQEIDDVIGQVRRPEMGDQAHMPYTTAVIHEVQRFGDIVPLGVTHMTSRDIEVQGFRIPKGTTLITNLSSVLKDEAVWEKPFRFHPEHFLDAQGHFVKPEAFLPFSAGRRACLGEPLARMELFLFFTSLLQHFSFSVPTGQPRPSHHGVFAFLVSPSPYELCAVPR

CYP3A [15] = biological target: T1, CYP3A; experiment: in vitro; conditions: microsomes
CYP1A2 [16] = biological target: T2, CYP1A2; experiment: biochemical
CYP2B6 = CYP2B6 (Homo sapiens, UniProt P20813); experiment: biochemical
Chain of CYP2B6 (P20813 whole entry): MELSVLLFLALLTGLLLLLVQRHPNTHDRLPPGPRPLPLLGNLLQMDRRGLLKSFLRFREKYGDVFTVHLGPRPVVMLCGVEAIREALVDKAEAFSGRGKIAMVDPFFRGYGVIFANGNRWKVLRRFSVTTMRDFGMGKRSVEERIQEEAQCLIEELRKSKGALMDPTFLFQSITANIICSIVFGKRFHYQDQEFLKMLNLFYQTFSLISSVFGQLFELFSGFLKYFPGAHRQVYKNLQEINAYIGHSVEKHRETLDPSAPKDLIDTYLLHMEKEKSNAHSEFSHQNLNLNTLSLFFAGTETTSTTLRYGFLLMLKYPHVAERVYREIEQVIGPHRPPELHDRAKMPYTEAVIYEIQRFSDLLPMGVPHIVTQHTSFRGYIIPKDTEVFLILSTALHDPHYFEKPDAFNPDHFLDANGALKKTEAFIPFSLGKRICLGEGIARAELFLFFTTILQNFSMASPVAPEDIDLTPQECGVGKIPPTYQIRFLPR

CYP2C8 = CYP2C8 (Homo sapiens, UniProt P10632); experiment: biochemical
Chain of CYP2C8 (P10632 whole entry): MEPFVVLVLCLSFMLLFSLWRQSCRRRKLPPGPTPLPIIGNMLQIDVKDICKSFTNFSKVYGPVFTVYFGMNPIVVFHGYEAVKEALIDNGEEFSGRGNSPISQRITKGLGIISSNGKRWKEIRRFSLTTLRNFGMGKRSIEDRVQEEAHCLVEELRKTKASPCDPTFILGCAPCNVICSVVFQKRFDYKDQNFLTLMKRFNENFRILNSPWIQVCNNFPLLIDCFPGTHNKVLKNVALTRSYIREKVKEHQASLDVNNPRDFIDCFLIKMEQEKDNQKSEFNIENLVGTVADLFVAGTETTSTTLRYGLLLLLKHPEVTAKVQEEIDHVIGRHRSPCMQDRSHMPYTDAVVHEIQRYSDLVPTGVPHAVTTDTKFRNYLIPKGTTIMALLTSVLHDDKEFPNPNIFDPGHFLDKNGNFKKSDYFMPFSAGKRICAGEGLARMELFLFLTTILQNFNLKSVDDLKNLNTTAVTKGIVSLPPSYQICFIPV

CYP2C9 [17] = biological target: T3, CYP2C9; experiment: biochemical
CYP2C19 [18] = biological target: T4, CYP2C19; experiment: biochemical
[19] = female, Sprague Dawley, iv, 5 mg/kg

Structure (SMILES): O=C(O)c1cc(-c2ccc(/C=C3\SC(=S)N(CCc4ccccc4)C3=O)o2)ccc1Cl [NBCoV1]
- IC50 [1]: 32.3 ± 4.6 nM
- IC50 [2]: 63.6 ± 4.6 nM
- IC50 [3]: 95 ± 22 nM
- IC50 [4]: 76.5 ± 0.3 nM
- IC50 [5]: 1397 ± 12 nM
- IC100 (range of IC100 values detected in the three cell lines) [6]: 0.25 to 1 µM
- IC50 ([6]; read-out: IC50 (range over the three cell lines)): 32.3 to 63.4 nM
- kd [7]: 0.0257 s⁻¹
- IC50 [8]: > 2000 nM
- IC50 (β-lactamase): > 2000 nM
- IC50 (Trypsin): > 2000 nM
- IC50 [9]: > 2000 nM
- IC50 (pseudovirus SARS-CoV-2; 293T/ACE2): 50 nM
- IC50 (pseudovirus SARS-CoV-2; read-out: IC50): 45 nM
- Caco-2 permeability (mean Papp) A-to-B (Caco-2 cells; 5 µM): 20.5 ×10⁻⁶ cm/s
- Caco-2 permeability (mean Papp) B-to-A (Caco-2 cells; 5 µM): 23.6 ×10⁻⁶ cm/s
- P-gp Substrate classification (Caco-2 cells; Caco-2): Negative
- % of Control Enzyme Activity (CYP3A [10]; 0.0137 μM): 96.6%
- % of Control Enzyme Activity (CYP3A [10]; 0.0412 μM): 97.0%
- % of Control Enzyme Activity (CYP3A [10]; 0.123 μM): 94.8%
- % of Control Enzyme Activity (CYP3A [10]; 0.370 μM, 0.37 µM): 96.3%
- % of Control Enzyme Activity (CYP3A [10]; 1.11 μM): 94.6%
- % of Control Enzyme Activity (CYP3A [10]; 3.33 μM): 82.2%
- % of Control Enzyme Activity (CYP3A [10]; 10 μM): 59.9%
- F% (bioavailability) ([11]; female, Sprague Dawley): 20.1%
- CLobs [11, 19]: 0.00013 (mg/kg)/(ng/mL)/h
- Vss_obs [11, 19]: 0.00053 (mg/kg)/(ng/mL)
- AUC0-t ([11]; iv, 5 mg/kg): 37,515.91 ng/mL ∗ h
- AUC0-t ([11]; po, 10 mg/kg): 12,023.00 ng/mL ∗ h
- Vz/F_obs ([11]; po, 10 mg/kg): 0.01078 (mg/kg)/(ng/mL)
- solubility (physchem; pH 7.4, Solubility (AVG)): 4.72 µM (≈ 2.22 µg/mL)
- solubility (physchem; pH 7.4, Solubility, single replicates (R1, R2)): 4.35 µM (≈ 2.04 µg/mL)
- Papp A→B (P-gp; Caco-2, pH 7.4, Caco-2 permeability (mean Papp) A-to-B, 5 µM): 16.9 ×10⁻⁶ cm/s
- Papp B→A (P-gp; Caco-2, pH 7.4, Caco-2 permeability (mean Papp) B-to-A, 5 µM): 20.4 ×10⁻⁶ cm/s
- Papp A→B (P-gp; Caco-2, pH 7.4, Papp A-to-B, single replicates (R1, R2)): 20.4 ×10⁻⁶ cm/s
- Papp B→A (P-gp; Caco-2, pH 7.4, Papp B-to-A, single replicates (R1, R2)): 20.9 ×10⁻⁶ cm/s
- half-life (in vitro): 1.87 h
- microsomal CLint (in vitro): 12.4 µL/min/mg
- remaining at 0.25 h (in vitro): 101%
- remaining at 0.5 h (in vitro): 80.5%
- remaining at 1 h (in vitro): 68.9%
- remaining at 1.5 h (in vitro): 69.5%
- remaining at 2 h (in vitro): 41.6%
- activity at 0.0137 µM (CYP1A2 [12]): 99.2%
- activity at 0.0412 µM (CYP1A2 [12]): 96.7%
- activity at 0.123 µM (CYP1A2 [12]): 93.8%
- activity at 0.37 µM (CYP1A2 [12]): 92.2%
- activity at 1.11 µM (CYP1A2 [12]): 89.8%
- activity at 3.33 µM (CYP1A2 [12]): 69.5%
- activity at 10 µM (CYP1A2 [12]): 41.3%
- activity at 0.0137 µM (CYP2C9 [13]): 99.4%
- activity at 0.0412 µM (CYP2C9 [13]): 98.2%
- activity at 0.123 µM (CYP2C9 [13]): 97.2%
- activity at 0.37 µM (CYP2C9 [13]): 95.1%
- activity at 1.11 µM (CYP2C9 [13]): 85.1%
- activity at 3.33 µM (CYP2C9 [13]): 59.9%
- activity at 10 µM (CYP2C9 [13]): 29.8%
- activity at 0.0137 µM (CYP2C19 [14]): 103%
- activity at 0.0412 µM (CYP2C19 [14]): 110%
- activity at 0.123 µM (CYP2C19 [14]): 101%
- activity at 0.37 µM (CYP2C19 [14]): 102%
- activity at 1.11 µM (CYP2C19 [14]): 92%
- activity at 3.33 µM (CYP2C19 [14]): 70.8%
- activity at 10 µM (CYP2C19 [14]): 40.7%
- IC50 (CYP2D6): > 10000 nM
- activity at 0.0137 µM (CYP2D6): 95.8%
- activity at 0.0412 µM (CYP2D6): 98.7%
- activity at 0.123 µM (CYP2D6): 98.6%
- activity at 0.37 µM (CYP2D6): 101%
- activity at 1.11 µM (CYP2D6): 97%
- activity at 3.33 µM (CYP2D6): 84.3%
- activity at 10 µM (CYP2D6): 59.2%
- IC50 (CYP3A [15]; pH 7.4): > 10000 nM
- activity at 0.0137 µM (CYP3A [15]; pH 7.4, % of Control Enzyme Activity, 0.0137 μM, n=1): 96.7%
- activity at 0.0412 µM (CYP3A [15]; pH 7.4, % of Control Enzyme Activity, 0.0412 μM, n=1): 97%
- activity at 0.123 µM (CYP3A [15]; pH 7.4, % of Control Enzyme Activity, 0.123 μM, n=1): 94.5%
- activity at 0.37 µM (CYP3A [15]; pH 7.4, % of Control Enzyme Activity, 0.370 μM, n=1): 95.1%
- activity at 1.11 µM (CYP3A [15]; pH 7.4, % of Control Enzyme Activity, 1.11 μM, n=1): 95.9%
- activity at 3.33 µM (CYP3A [15]; pH 7.4, % of Control Enzyme Activity, 3.33 μM, n=1): 88.2%
- activity at 10 µM (CYP3A [15]; pH 7.4, % of Control Enzyme Activity, 10 μM, n=1): 61.6%
- IC50 (CYP1A2 [16]): 7400 nM
- IC50 (CYP2B6): 3190 nM
- IC50 (CYP2C8): 2080 nM
- IC50 (CYP2C9 [17]): 5010 nM
- IC50 (CYP2C19 [18]): 7310 nM
